# Assays:
# [1] = target: T1, M2 (Heart) muscarinic receptors (Rattus norvegicus, UniProt P10980); assay: Receptor binding test, [3H]NMS, heart (M2); parameters: species or system Male Wistar rats; conditions: for Selectivity ratio (M1 /M2): ratio of Ki M1 (cortex) to Ki M2 (heart); for Ki: in vitro, rat heart, 0.3 nM [3H]NMS, 40 minutes
# T1 construct: The cerebral cortex, heart and salivary glands were removed, washed and homogenised; from tissue; host or cells: rat heart homogenate (Wistar, Chbb: THOM)
# T1 sequence (P10980 1-466): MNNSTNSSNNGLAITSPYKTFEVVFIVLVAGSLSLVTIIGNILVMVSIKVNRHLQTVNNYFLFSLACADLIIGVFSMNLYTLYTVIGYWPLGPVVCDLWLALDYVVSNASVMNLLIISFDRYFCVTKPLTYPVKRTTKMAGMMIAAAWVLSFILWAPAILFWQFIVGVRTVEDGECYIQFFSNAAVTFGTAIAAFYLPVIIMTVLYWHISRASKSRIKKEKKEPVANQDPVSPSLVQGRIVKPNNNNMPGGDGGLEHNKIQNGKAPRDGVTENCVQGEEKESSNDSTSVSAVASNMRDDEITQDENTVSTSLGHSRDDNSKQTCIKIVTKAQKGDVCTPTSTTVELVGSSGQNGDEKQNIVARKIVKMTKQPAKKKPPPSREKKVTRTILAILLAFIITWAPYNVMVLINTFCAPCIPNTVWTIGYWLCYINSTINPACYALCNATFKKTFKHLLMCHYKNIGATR
# [2] = target: T2, M1 -receptors of the cortex (Rattus norvegicus, UniProt P08482); assay: Receptor binding test, [3H]pirenzepine, cerebral cortex (M1); parameters: species or system Male Wistar rats; conditions: in vitro, 1 nM [3H]pirenzepine, 90 minutes
# T2 construct: The cerebral cortex, heart and salivary glands were removed, washed and homogenised; from tissue; host or cells: rat cerebral cortex homogenate (Wistar, Chbb: THOM)
# T2 sequence (P08482 1-460): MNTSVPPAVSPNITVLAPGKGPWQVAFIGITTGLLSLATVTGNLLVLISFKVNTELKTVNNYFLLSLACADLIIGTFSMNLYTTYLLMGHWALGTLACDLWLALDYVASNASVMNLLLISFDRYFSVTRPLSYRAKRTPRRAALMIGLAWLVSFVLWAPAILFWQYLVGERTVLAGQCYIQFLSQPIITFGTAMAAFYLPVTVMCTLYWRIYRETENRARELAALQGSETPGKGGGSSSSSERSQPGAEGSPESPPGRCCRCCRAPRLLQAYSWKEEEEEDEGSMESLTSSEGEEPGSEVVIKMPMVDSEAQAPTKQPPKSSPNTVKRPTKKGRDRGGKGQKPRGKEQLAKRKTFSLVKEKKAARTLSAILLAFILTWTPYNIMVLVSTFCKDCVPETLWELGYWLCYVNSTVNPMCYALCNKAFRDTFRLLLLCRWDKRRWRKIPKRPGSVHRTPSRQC
# [3] = target: T3, M3 (Submandibular gland) muscarinic receptors (Rattus norvegicus, UniProt P08483); assay: Receptor binding test, [3H]NMS, salivary (submandibular) gland (M3); parameters: species or system Male Wistar rats; conditions: in vitro, 0.3 nM [3H]NMS, 40 minutes
# T3 construct: The cerebral cortex, heart and salivary glands were removed, washed and homogenised; from tissue; host or cells: rat salivary (submandibular) gland homogenate (Wistar, Chbb: THOM)
# [4] = system: learning ability and memory performance; conditions: Hunter et al., Sutherland et al., Wishaw; cited from earlier work
# [5] = system: learning-impaired old rats; assay: Effect on the memory in the Morris water maze, learning-impaired 24 months old rats; format: in vivo, rat; conditions: 0.2 mg/kg s.c.
# Description: The tests were carried out using the water maze described by R. G. M. Morris in Learn Motive 12:239-249 (1981) using the test method described therein.
# On the first day, rats which were 24 months old and therefore learning-impaired (n=7 per group) were given 0.2 mg/kg of compound D by subcutaneous route whilst another group of these animals were given physiological saline solution (s.c.).
# [6] = system: arecoline-induced increase in blood pressure; assay: Arecoline test: CNS-penetration, in vivo (rat), reduction in the arecoline-induced increase in blood pressure; conditions: i.v.
# Description: Cerebroavailable antimuscarinics block this central effect. […] The trachea is incubated, the animals are respirated with an air/oxygen mixture (80 breaths per minute). The blood pressure is recorded after canulation of the carotid artery by means of a pressure recorder (Bell and Howell Type 4-327-I). The test substances are administered through the jugular vein ([…]). […] The arecoline is administered (in doses of 0.3 mg/kg) at 15 minute intervals. After 2 comparison values, the test substance is injected in increasing doses 5 minutes before the next administration of arecoline. The results obtained were compared with the average starting values and determined as the percentage inhibition.
# T3 sequence (P08483 whole entry): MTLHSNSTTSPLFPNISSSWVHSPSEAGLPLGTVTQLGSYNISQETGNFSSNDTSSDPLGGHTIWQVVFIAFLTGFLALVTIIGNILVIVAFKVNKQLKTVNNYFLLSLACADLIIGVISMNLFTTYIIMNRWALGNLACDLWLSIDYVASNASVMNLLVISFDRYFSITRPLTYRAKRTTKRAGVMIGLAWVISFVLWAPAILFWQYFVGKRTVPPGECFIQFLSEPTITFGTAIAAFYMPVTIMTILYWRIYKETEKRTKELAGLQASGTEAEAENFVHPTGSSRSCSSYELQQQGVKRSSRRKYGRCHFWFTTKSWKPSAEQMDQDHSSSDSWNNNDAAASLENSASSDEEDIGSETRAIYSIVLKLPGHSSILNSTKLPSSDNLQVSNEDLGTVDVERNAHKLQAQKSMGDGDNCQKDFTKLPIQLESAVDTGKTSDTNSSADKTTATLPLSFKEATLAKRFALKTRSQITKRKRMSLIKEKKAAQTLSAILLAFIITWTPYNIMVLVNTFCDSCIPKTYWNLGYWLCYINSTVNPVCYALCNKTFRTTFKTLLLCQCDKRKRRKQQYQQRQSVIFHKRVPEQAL
Selectivity ratio (M1 /M2) [1],SMILES,also measured
10,"CCN(CCCC1CCN(CC(=O)N2c3ccc(C)cc3C(=O)Nc3cccnc32)CC1)C(=O)C(C)(C)C [Substance E, 5,11-dihydro-8-methyl-11-[[4-[3-[(2,2-dimethyl-1-oxopropyl)-ethylamino]propyl]-1-piperidinyl]acetyl]-6H-pyrido[2,3-b][,1,4]benzodiazepin-6-one]",–
4.6,"Cc1scc2c1N(C(=O)CCC#CCN1CCCCCC1)c1ccccc1NC2=O [Substance P, 4,9-dihydro-3-methyl-4-[6-(hexahydro-1H-1-azepinyl)-1-oxo-4-hexyn-1-yl]-10H-thieno[3,4-b][1,5]benzodi-azepin-10-one]",–
2.5,"CCN(CC)CC1COCCN1CCCC(=O)N1c2ccccc2C(=O)Nc2cccnc21 (centres unmarked) [Substance Q, 11-[4-[3-[(diethylamino)methyl]-4-morpholinyl]-1-oxo-1-butyl]-5,11-dihydro-6H-pyrido[2,3-b][1,4]-benzodiazepin-6-one]",–
–,"CCN(CC)CC1CCCCN1CC(=O)N1c2cc(Cl)ccc2C(=O)Nc2cccnc21 (racemic) [Substance K, (±)-9-chloro-11-[[2-[(diethylamino)methyl]-1-piperidinyl]-acetyl]-5,11-dihydro-6H-pyrido[2,3-b]-[1,4]benzodiazepin-6-one]",Ki [2]: 126 nM; Ki [3]: 759 nM; Ki [1]: 25 nM
–,CN1CCN(CC(=O)N2c3ccccc3C(=O)Nc3cccnc32)CC1 [pirenzepine],learning ability and memory performance (literature) [4]: deterioration in learning ability and memory performance
14,"CCN(CCCC1CCN(CC(=O)N2c3ccccc3C(=O)Nc3cccnc32)CC1)C(=O)C(C)(C)C [Substance F, 5,11-dihydro-11-[[4-[3-[(2,2-dimethyl-1-oxopropyl)-ethylamino]propyl]-1-piperidinyl]acetyl]-6H-pyrido[2,3-b][1,4]benzodiazepin-6-one]",–
35,"CCCC(C)(C)C(=O)N(CC)CCCC1CCN(CC(=O)N2c3ccc(Cl)cc3C(=O)Nc3cccnc32)CC1 [Substance D, 5,11-dihydro-8-chloro-11-[[4-[3-[(2,2-dimethyl-1-oxopentyl)-ethylamino]propyl]-1-piperidinyl]-acetyl]-6H-pyrido[2,3-b][1,4]benzodiazepin-6-one]","memory performance versus young control rats ([5]; fourth day, 24 months old rats, n=7): reached the same level as the control groups of young rats; memory performance compared with saline-treated learning-impaired old rats ([5]; observed 4 days, FIG. 1): improved memory performance; reduction of latency period in Morris water maze ([5]; second day, 24 months old rats, n=7): approximately 50%"
13,"CCCC(C)(C)C(=O)N(CC)CCCCC1CCN(CC(=O)N2c3ccccc3C(=O)Nc3cccnc32)CC1 [Substance C, 5,11-dihydro-11-[[4-[4-[(2,2-dimethyl-1-oxopentyl)-ethylamino]butyl]-1-piperidinyl]acetyl]-6H-pyrido[2,3-b][1,4]benzodiazepin-6-one]",–
6.5,"O=C1Nc2cccnc2N(C(=O)N2CCCC(CCCN3CCCCC3)C2)c2ccccc21 (centres unmarked) [Substance M, 5,11-dihydro-11-[[3-[3-(1-piperidinyl)-1-propyl]-1-piperidinyl]carbonyl]-6H-pyrido[2,3-b][1,4]benzo-diazepin-6-one]",–
–,"CCCN(CCC)CC1CCCCN1CCNC(=O)N1c2ccccc2C(=O)Nc2cccnc21.CS(=O)(=O)O (centres unmarked) [Substance L, 5,11-dihydro-11-[[[2-[2-[(dipropylamino)methyl]-1-piperidinyl]ethyl]amino]carbonyl]-6H-pyrido[2,3-b]-[1,4]benzodiazepin-6-one methanesulphonate]",effect on arecoline-mediated central effects / increase in blood pressure (in words) [6]: had no effect on the increase in blood pressure caused by arecoline
10,"CCCC(C)(C)C(=O)N(CC)CCCC1CCN(CC(=O)N2c3ccccc3C(=O)Nc3cccnc32)CC1 [Substance B, 5,11-dihydro-[[4-[3-[(2,2-dimethyl-1-oxopentyl)-ethylamino]-propyl]-1-piperidinyl]acetyl]-6H-pyrido[2,3-b][1,4]benzodiazepin-6-one]",–
20,"CCN(CCCC1CCN(CC(=O)N2c3ccccc3C(=O)Nc3cccnc32)CC1)C(=O)C(C)(C)CC [Substance A, 5,11-dihydro-11-[[4-[3-[(2,2-dimethyl-1-oxobutyl]-ethylamino]-propyl]-1-piperidinyl]acetyl]-6H-pyrido[2,3-b][1,4]benzodiazepin-6-one]",–
5.3,"CN(CCC1CCCCCN1C)CC(=O)N1c2ccccc2C(=O)Nc2cccnc21 (centres unmarked) [Substance S, 5,11-dihydro-11-[[[2-(1-methyl-hexahydro-1H-2-azepinyl)-ethyl]methylamino]acetyl]-6H-pyrido[2,3-b][1,4]benzodiazepin-6-one]",–
2.4,"CN(CCC1CCCN1C)CC(=O)N1c2ccccc2C(=O)Nc2cccnc21 (centres unmarked) [Substance R, 5,11-dihydro-11-[[[2-(1-methyl-2-pyrrolidinyl)-ethyl]-methylamino]acetyl]-6H-pyrido[2,3-b][1,4]-benzodiazepin-6-one]",–
24,"CCN(CCCC1CCN(CC(=O)N2c3ccc(C)cc3C(=O)Nc3cccnc32)CC1)C(=O)C(C)(C)CC [Substance G, 5,11-dihydro-8-methyl-11-[[4-[3-[(2,2-dimethyl-1-oxobutyl)ethylamino]propyl]-1-piperidinyl]acetyl]-6H-pyrido[2,3-b][1,4]benzodiazepin-6-one]",–
–,"CCN(CC)CC1CCCCN1CC(=O)N1c2ccccc2C(=O)Nc2cccnc21 (centres unmarked) [Substance H, 11-[[2-[(diethylamino)methyl]-1-piperidinyl]acetyl]-5,11-dihydro-6H-pyrido[2,3-b][1,4]benzodiazepin-6-one]",Ki [2]: 500 nM; Ki [1]: 79 nM
6.6,"O=C1Nc2cccnc2N(C(=O)CCC#CCN2CCCCC2)c2ccccc21 [Substance J, 5,11-dihydro-11-[1-oxo-6-(1-piperidinyl)-4-hexyn-1-yl]-6H-pyrido[2,3-b][1,4]benzodiazepin-6-one]",–

# Reference: patent US5641772A, “Condensed diazepinones, processes for preparing them and agents containing these compounds for treating diseases of the central nervous system and for promoting cerebral blood circulation” (Dr. Karl Thomae GmbH, priority 1991, dated 1997)
